Source: the NIST ThermoML archive (doi:10.1021/je200415u)
± gives the expanded uncertainty stated by the source.

Experiment: mn = molality of the nth substance listed, in mol/kg
Conditions: 101 kPa, Liquid, METLER TOLEDO SevenEasy conductivity meter

In the case of `O=[N+]([O-])[O-].O=[N+]([O-])[O-].O=[N+]([O-])[O-].[Ce+3]` [cerium nitrate] + O, the electrical conductivity (293.15 K, m1 = 0.5112) is reported as 6.618 ± 0.066 S/m, the electrical conductivity (293.15 K, m1 = 1.031) is reported as 8.513 ± 0.085 S/m and the electrical conductivity (293.15 K, m1 = 1.555) is reported as 8.217 ± 0.082 S/m. The electrical conductivity (293.15 K, m1 = 1.997) was 7.244 ± 0.072 S/m, the electrical conductivity (293.15 K, m1 = 3.131) was 4.309 ± 0.043 S/m and the electrical conductivity (293.15 K, m1 = 3.968) was 2.67 ± 0.027 S/m. It also gave an electrical conductivity (293.15 K, m1 = 4.462) of 1.912 ± 0.019 S/m, an electrical conductivity (298.15 K, m1 = 0.5112) of 7.4 ± 0.074 S/m and an electrical conductivity (298.15 K, m1 = 1.031) of 9.446 ± 0.094 S/m. It also gave an electrical conductivity (298.15 K, m1 = 1.555) of 9.15 ± 0.092 S/m, an electrical conductivity (298.15 K, m1 = 1.997) of 8.103 ± 0.081 S/m and an electrical conductivity (298.15 K, m1 = 3.131) of 4.9 ± 0.049 S/m. For the same compound, the electrical conductivity (298.15 K, m1 = 3.968) was 3.1 ± 0.031 S/m, the electrical conductivity (298.15 K, m1 = 4.462) was 2.244 ± 0.022 S/m and the electrical conductivity (308.15 K, m1 = 0.5112) was 8.78 ± 0.088 S/m. For the same compound, the electrical conductivity (308.15 K, m1 = 1.031) was 11.24 ± 0.11 S/m, the electrical conductivity (308.15 K, m1 = 1.555) was 10.9 ± 0.11 S/m and the electrical conductivity (308.15 K, m1 = 1.997) was 9.78 ± 0.098 S/m. The electrical conductivity (308.15 K, m1 = 3.131) was 6.136 ± 0.061 S/m, the electrical conductivity (308.15 K, m1 = 3.968) was 4.018 ± 0.04 S/m and the electrical conductivity (308.15 K, m1 = 4.462) was 2.96 ± 0.03 S/m.
In the case of `O=[N+]([O-])[O-].O=[N+]([O-])[O-].O=[N+]([O-])[O-].[Nd+3]` [neodymium(III) nitrate] + O, the electrical conductivity (293.15 K, m1 = 0.522) is reported as 6.78 ± 0.068 S/m, the electrical conductivity (293.15 K, m1 = 1.021) is reported as 8.78 ± 0.088 S/m and the electrical conductivity (293.15 K, m1 = 1.555) is reported as 8.65 ± 0.087 S/m. It also gave an electrical conductivity (293.15 K, m1 = 2.093) of 7.44 ± 0.074 S/m, an electrical conductivity (293.15 K, m1 = 3.086) of 4.708 ± 0.047 S/m and an electrical conductivity (293.15 K, m1 = 4.124) of 2.521 ± 0.025 S/m. For the same compound, the electrical conductivity (293.15 K, m1 = 4.297) was 2.219 ± 0.022 S/m, the electrical conductivity (298.15 K, m1 = 0.522) was 7.48 ± 0.075 S/m and the electrical conductivity (298.15 K, m1 = 1.021) was 9.66 ± 0.097 S/m. The electrical conductivity (298.15 K, m1 = 1.555) was 9.545 ± 0.095 S/m, the electrical conductivity (298.15 K, m1 = 2.093) was 8.27 ± 0.083 S/m and the electrical conductivity (298.15 K, m1 = 3.086) was 5.329 ± 0.053 S/m. It also gave an electrical conductivity (298.15 K, m1 = 4.124) of 2.931 ± 0.029 S/m, an electrical conductivity (298.15 K, m1 = 4.297) of 2.623 ± 0.026 S/m and an electrical conductivity (308.15 K, m1 = 0.522) of 8.97 ± 0.09 S/m. The electrical conductivity (308.15 K, m1 = 1.021) was 11.5 ± 0.12 S/m, the electrical conductivity (308.15 K, m1 = 1.555) was 11.44 ± 0.11 S/m and the electrical conductivity (308.15 K, m1 = 2.093) was 10.01 ± 0.1 S/m. The electrical conductivity (308.15 K, m1 = 3.086) was 6.65 ± 0.067 S/m, the electrical conductivity (308.15 K, m1 = 4.124) was 3.821 ± 0.038 S/m and the electrical conductivity (308.15 K, m1 = 4.297) was 3.422 ± 0.034 S/m.
Compound `O=[N+]([O-])[O-].O=[N+]([O-])[O-].O=[N+]([O-])[O-].[Y+3]` [yttrium nitrate] + O has an electrical conductivity (293.15 K, m1 = 0.4989) of 7.202 ± 0.072 S/m, an electrical conductivity (293.15 K, m1 = 0.9965) of 10.03 ± 0.1 S/m and an electrical conductivity (293.15 K, m1 = 1.497) of 10.36 ± 0.1 S/m. The electrical conductivity (293.15 K, m1 = 1.982) was 9.433 ± 0.094 S/m, the electrical conductivity (293.15 K, m1 = 2.947) was 6.35 ± 0.064 S/m and the electrical conductivity (293.15 K, m1 = 3.945) was 3.68 ± 0.037 S/m. The electrical conductivity (293.15 K, m1 = 4.957) was 1.89 ± 0.019 S/m, the electrical conductivity (298.15 K, m1 = 0.4989) was 8.339 ± 0.083 S/m and the electrical conductivity (298.15 K, m1 = 0.9965) was 11.6 ± 0.12 S/m. For the same compound, the electrical conductivity (298.15 K, m1 = 1.497) was 12 ± 0.12 S/m, the electrical conductivity (298.15 K, m1 = 1.982) was 10.9 ± 0.11 S/m and the electrical conductivity (298.15 K, m1 = 2.947) was 7.421 ± 0.074 S/m. It also gave an electrical conductivity (298.15 K, m1 = 3.945) of 4.4 ± 0.044 S/m, an electrical conductivity (298.15 K, m1 = 4.957) of 2.28 ± 0.023 S/m and an electrical conductivity (308.15 K, m1 = 0.4989) of 9.922 ± 0.099 S/m. The electrical conductivity (308.15 K, m1 = 0.9965) was 13.7 ± 0.14 S/m, the electrical conductivity (308.15 K, m1 = 1.497) was 14.17 ± 0.14 S/m and the electrical conductivity (308.15 K, m1 = 1.982) was 13.03 ± 0.13 S/m. The electrical conductivity (308.15 K, m1 = 2.947) was 9.08 ± 0.091 S/m, the electrical conductivity (308.15 K, m1 = 3.945) was 5.611 ± 0.056 S/m and the electrical conductivity (308.15 K, m1 = 4.957) was 3.08 ± 0.031 S/m.
